Results: patent US20050049206A1, “Compositions of flavonoids and flavonoid-containing extracts and the treatment of diseases” (priority 2003, published 2005)
Entries after “also recorded” stand apart in the source; their conditions may differ. Where two headings read alike, the source gives them in different places.

Legend:
[1] = tested on: pulmonary fibrosis in bleomycin-induced rats; assay: Assays of bronchoalveolar lavage fluid in bleomycin-induced pulmonary fibrosis rats; assay type: in vivo, Sprague-Dawley rats; settings: BL-instilled rats, day 28, n=10
[2] = tested on: pulmonary fibrosis in bleomycin-induced rats; assay: Histopathological / morphologic examination of lungs in bleomycin-induced pulmonary fibrosis rats; assay type: in vivo, Sprague-Dawley rats; settings: for Alveolitis Score 0 (number of rats) / Alveolitis Score I (number of rats) / Alveolitis Score II (number of rats) / Alveolitis Score III (number of rats) / Pulmonary Fibrosis Score 0 (number of rats) / Pulmonary Fibrosis Score I (number of rats) / Pulmonary Fibrosis Score II (number of rats) / Pulmonary Fibrosis Score III (number of rats): BL-instilled rats, day 28, n=10; for pulmonary anti-fibrotic activity: animal experiments (rats)
Acute toxicity (LD50) = settings: in vivo
[3] = tested on: CCl4-induced liver cirrhosis in rats; assay: Hepatic cirrhosis in CCl4-induced rats; assay type: in vivo, Sprague-Dawley rats; settings: for ALT decrease / AST decrease: serum, 450 mg/kg by gavage for 3 weeks after 8 weeks CCl4, P<0.001 (FIG. 10)
From the text: Animals and method of baicalin dosing: Fibrosis was induced by chronic CCl4 administration to rats. Sprague-Dawley rats weighing 200-240 g received three doses a week i.p. of a mixture 1:6 of CCl4-mineral oil for the first week; then the second week the ratio was 1:5, the third week 1:4, and the 4th-8th weeks the ratio was 1:3 [Armendariz Biochim Biophys Acta 1997;1353:241-252, Armendariz Hepatology 1991;14:895-900.]. CCl4 intoxication was stopped and cirrhotic animals were then fed by gavage either with the baicalin (n=10) at the dosage of 450 mg/kg or saline (n=10) as a control for 3 more weeks.
Statistical analysis: Results relative to the number of experiments indicated, are expressed as mean ±SD. Statistical analyses were perfomed using Student's t-test.
Preparation of liver homogenates: Rats were killed at indicated times and liver homogenates were prepared from 150 mg of tissue as described [Gao Hum Gene Ther 1999;10:911-922.] and kept at −70° C. At the same time, serum samples were obtained and kept at −20° C. until used. Total protein levels in serum were determined using Bradford assay of protein quantification [Bradford Anal Biochem 1976;72:248-254.].
Biochemical assays: Blood was drawn from control and experimental cirrhotic animals at the moment of sacrifice and serum transaminases alanine aminotransferase (ALT), aspartate aminotransferase (AST) and alkaline phosphatase (ALP) were determined in an automated Sincron-7 machine.
Hydroxyproline content biochemical determinations: Liver samples were obtained at the moment of sacrifice and 150 mg were subjected to acid hydrolysis to determine the amount of hydroxyproline according to Rojkind and coworkers [Rojkind Anal Biochem 1974; 57:1-7].

[4] = baicalin 450 mg/kg/day by gavage
[5] = baicalein by gavage once a day (350 or 450 mg/kg/day)

## O=C(O)[C@H]1O[C@@H](Oc2cc3oc(-c4ccccc4)cc(=O)c3c(O)c2O)[C@H](O)[C@@H](O)[C@@H]1O [Baicalin, (2S,3S,4S,5R,6S)-6-(5,6-dihydroxy-4-oxo-2-phenyl-4H-chromen-7-yloxy)-tetrahydro-3,4,5-trihydroxy-2H-pyran-2-carboxylic acid]
[1]; [4]
  LDH: 1331.61 ± 516.68 U/L
  Mononuclear cells: 465.0 ± 320.2 ×10^4/ml
  Protein: 1.85 ± 0.52 g/L
[2]; [4]
  Alveolitis Score 0 (number of rats): 0
  Alveolitis Score I (number of rats): 7
  Alveolitis Score II (number of rats): 3
  Alveolitis Score III (number of rats): 0
  Pulmonary Fibrosis Score 0 (number of rats): 0
  Pulmonary Fibrosis Score I (number of rats): 6
  Pulmonary Fibrosis Score II (number of rats): 4
  Pulmonary Fibrosis Score III (number of rats): 0
[2]
  pulmonary anti-fibrotic activity: dramatic and novel pulmonary anti-fibrotic activity
[2]; baicalin-treated BL-induced rats, day 28, HE staining
  lung lesions (morphology) compared with the BL group: of a more mild nature than that of the BL group; also recorded: considerably less extracellular fibers and mononuclear cell alveolitis; also recorded: of a more mild nature than those of the BL group
[2]; oral baicalin, BL-induced rats
  fibrotic index (lung): dramatic effect
Acute toxicity (LD50)
  acute toxicity: ~14 g/kg body weight
Acute toxicity (LD50); read-out: LD50
  LD50: 11000 mg/kg
[3]; 450 mg/kg baicalin, n=10, P<0.001 (FIG. 8)
  macroscopic view of cirrhotic livers, treated vs non-treated: remarkable differences in the entire granular texture of the liver
[3]; baicalin 450 mg/kg by gavage for 3 weeks after 8 weeks CCl4, P<0.05 (FIG. 9)
  hydroxyproline level of liver (relative collagen content per g of liver) vs non-treated: significantly lower
[3]; baicalin 450 mg/kg daily by gavage for 3 weeks after 8 weeks CCl4, n=10
  liver fibrosis reduction as compared with saline controls: 40%
[3]; oral baicalin 450 mg/kg, CCl4 rats (FIG. 8)
  fibrotic index (liver): dramatic effect
[3]
  ALT decrease: over 2 fold
  AST decrease: over 3 fold

## O=c1cc(-c2ccccc2)oc2cc(O)c(O)c(O)c12 [Baicalein, 5,6,7-Trihydroxy-2-phenyl-4H-chromen-4-one]
[1]; [5]
  LDH: 1389.61 ± 526.34 U/L
  Mononuclear cells: 501.0 ± 310.2 ×10^4/ml
  Protein: 1.95 ± 0.35 g/L
[2]; baicalein by gavage once a day
  Alveolitis Score 0 (number of rats): 0
  Alveolitis Score I (number of rats): 8
  Alveolitis Score II (number of rats): 2
  Alveolitis Score III (number of rats): 0
  Pulmonary Fibrosis Score 0 (number of rats): 0
  Pulmonary Fibrosis Score I (number of rats): 7
  Pulmonary Fibrosis Score II (number of rats): 3
  Pulmonary Fibrosis Score III (number of rats): 0
[2]
  pulmonary anti-fibrotic activity: dramatic and novel pulmonary anti-fibrotic activity
[2]; baicalein by gavage, BL-rat model
  extracellular fibers and mononuclear cell alveolitis of lungs compared with the BL group: considerably less extracellular fibers and mononuclear cell alveolitis
[2]; oral baicalein, BL-induced rats
  fibrotic score (lung): dramatic effect
Acute toxicity (LD50)
  LD50: 11000 mg/kg
  acute toxicity: about 11 g/kg body weight
Acute toxicity (LD50); read-out: LD50
  LD50: 14000 mg/kg

## Cc1ccc(=O)n(-c2ccccc2)c1 [Pirfenidone, reference compound]
[3]
  ALT decrease: over 2 fold
  AST decrease: over 3 fold
